Test results reported in patent US10801035B2, “Plants having increased tolerance to herbicides” (BASF SE, priority 2011, dated 2020).

Tests used:
Wild type soybean plants = assay: Greenhouse herbicide spray test, non-transformed soybean cuttings; assay type: in vivo, Glycine max; details: Wild type (no transgene), two weeks after herbicide treatment
Protocol: Transgenic plants expressing heterologous HPPD or HST enzymes are tested for tolerance against coumarone-derivative herbicides in greenhouse experiments.
For post emergence treatment, the test plants are first grown to a height of 3 to 15 cm, depending on the plant habit, and only then treated with the herbicides. For this purpose, the test plants are either sown directly and grown in the same containers, or they are first grown separately and transplanted into the test containers a few days prior to treatment.
For testing of T0 plants, cuttings can be used. In the case of soybean plants, an optimal shoot for cutting is about 7.5 to 10 cm tall, with at least two nodes present. Each cutting is taken from the original transformant (mother plant) and dipped into rooting hormone powder (indole-3-butyric acid, IBA). The cutting is then placed in oasis wedges inside a bio-dome. Wild type cuttings are also taken simultaneously to serve as controls. The cuttings are kept in the biodome for 5-7 days and then transplanted to pots and then acclimated in the growth chamber for two more days. Subsequently, the cuttings are transferred to the greenhouse, acclimated for approximately 4 days, and then subjected to spray tests as indicated.
Depending on the species, the plants are kept at 10-25° C. or 20-35° C. The test period extends over 3 weeks. During this time, the plants are tended and their response to the individual treatments is evaluated. Herbicide injury evaluations are taken at 2 and 3 weeks after treatment. Plant injury is rated on a scale of 0 to 9, 0 being no injury and 9 being complete death. Tolerance to coumarone-derivative herbicides can also be assessed in Arabidopsis. In this case transgenic Arabidopsis thaliana plants are assayed for improved tolerance to coumarone-derivative herbicides in 48-well plates. […] Seven to ten days after seeding growth inhibition is evaluated by comparison to wild type plants. Tolerance factor is calculated by dividing the plant growth IC50 value of transgenic plants containing a HPPD and/or HST sequence by that of wildtype plants. […]

[1] = molecular target: T1, Arabidopsis HPPD variant M335H (Arabidopsis thaliana, UniProt P93836, M335H); assay: HPPD activity assay, Arabidopsis HPPD mutant M335H; assay type: biochemical; details: normalized on wildtype
T1 construct: His6 (N); made in house; host or cells: E. coli BL21 (DE3)
T1 sequence (P93836 whole entry M335H): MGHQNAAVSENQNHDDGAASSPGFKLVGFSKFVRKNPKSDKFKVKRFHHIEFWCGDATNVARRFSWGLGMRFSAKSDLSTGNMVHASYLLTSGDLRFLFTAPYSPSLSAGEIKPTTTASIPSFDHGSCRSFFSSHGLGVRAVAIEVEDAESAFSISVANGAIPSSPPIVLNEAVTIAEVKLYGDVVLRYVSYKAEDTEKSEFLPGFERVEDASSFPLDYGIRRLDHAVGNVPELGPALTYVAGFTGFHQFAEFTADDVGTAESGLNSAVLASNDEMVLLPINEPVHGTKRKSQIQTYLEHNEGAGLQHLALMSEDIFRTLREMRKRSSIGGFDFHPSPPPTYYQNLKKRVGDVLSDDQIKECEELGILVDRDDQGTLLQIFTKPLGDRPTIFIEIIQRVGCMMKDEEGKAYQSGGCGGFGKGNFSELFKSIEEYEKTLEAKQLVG
Protocol: HPPD produces homogentisic acid and CO2 from 4-hydroxyphenylpyruvate (4-HPP) and O2. The activity assay for HPPD is based on the analysis of homogentisic acid by reversed phase HPLC.
The assay mixture can contain 150 mM potassium phosphate buffer pH 7.0, 50 mM L-ascorbic acid, 1 μM FeSO4 and 7 μg of purified enzyme in a total volume of 1 ml. Inhibitors are dissolved in DMSO (dimethylsulfoxide) to a concentration of 20 mM or 0.5 mM, respectively. From this stock solution serial five-fold dilutions are prepared in DMSO, which are used in the assay. The respective inhibitor solution accounts for 1% of the assay volume. Thus, final inhibitor concentrations range from 200 μM to 2.5 nM or from 5 μM to 63 pM, respectively. After a preincubation of 30 min the reaction is started by adding 4-HPP to a final concentration of 0.1 mM. […]
Inhibitors are dissolved in DMSO (dimethylsulfoxide) to a concentration of 0.5 mM. […] IC50 values are calculated using non-linear regression.
Purified, mutant HPPD enzymes are obtained by the methods described above. […] Apparent michaelis constants (Km) and maximal reaction velocities (Vmax) are calculated by non-linear regression with the software GraphPad Prism 5 (GraphPad Software, La Jolla, USA) using a substrate inhibition model. […] Weighted means (by standard error) of Km and […] values are calculated from at least three independent experiments. […]

`CC1=NOC(c2c(Cl)ccc(C3=C(O)c4ncccc4N(CC(F)F)S3(=O)=O)c2Cl)C1` (stereo not shown) [Inhibitor 1, 3-[2,4-dichloro-3-(3-methyl-4,5-dihydroisoxazol-5-yl)phenyl]-1-(2,2-difluoroethyl)-2,2-dioxo-pyrido[3,2-c]thiazin-4-ol] showed an Injury evaluation (Wild type soybean plants; dose 62 g/ha) of 26, an Injury evaluation (Wild type soybean plants; dose 125 g/ha) of 44 and an Injury evaluation (Wild type soybean plants; dose 250 g/ha) of 68.
In the case of `O=S1(=O)C(c2c(Cl)cc(Cl)nc2Cl)=C(O)c2ncccc2N1CC(F)F` [Inhibitor 2, 1-(2,2-difluoroethyl)-2,2-dioxo-3-(2,4,6-trichloro-3-pyridyl)pyrido[3,2-c]thiazin-4-ol], the “Normalized tolerance index (TI)” value [1] is reported as 0.2.
